# Reference: patent US10696615B2, “Prenylated hydroxystilbenes” (The University of Sydney, priority 2011, dated 2020)
# What was measured:
# Type in all cases: cell-based, human
# SF-268 = assay: NCI in vitro cancer screen, CNS Cancer; details: SF-268, unit not printed (M)
# NCI-H23 = assay: NCI in vitro cancer screen, Non-Small Cell Lung Cancer; details: NCI-H23, unit not printed (M)
# 786-0 = assay: NCI in vitro cancer screen, Renal Cancer; details: 786-0, unit not printed (M)
# EKVX = assay: NCI in vitro cancer screen, Non-Small Cell Lung Cancer; details: unit not printed (M)
# RXF-393 = assay: NCI in vitro cancer screen, Renal Cancer; details: Homo sapiens, RXF 393, unit not printed (M)
# OVCAR-8 = assay: NCI in vitro cancer screen, Ovarian Cancer; details: OVCAR-8, unit not printed (M)
# SR = assay: NCI in vitro cancer screen, Leukemia; details: unit not printed (M)
# LOX IMVI = assay: NCI in vitro cancer screen, Melanoma; details: unit not printed (M)
# MDA-MB-435 = assay: NCI in vitro cancer screen, Melanoma; details: MDA-MB-435, unit not printed (M)
# HOP-62 = assay: NCI in vitro cancer screen, Non-Small Cell Lung Cancer; details: HOP (first HOP line), unit not printed (M)
# T-47D = assay: NCI in vitro cancer screen, Breast Cancer; details: unit not printed (M)
# NCI-H460 = assay: NCI in vitro cancer screen, Non-Small Cell Lung Cancer; details: NCI-H460, unit not printed (M)
# MDA-MB-468 = assay: NCI in vitro cancer screen, Breast Cancer; details: MDA-MB-468, unit not printed (M)
# HCC-2998 = assay: NCI in vitro cancer screen, Colon Cancer; details: HCC-2998, unit not printed (M)
# SK-OV-3 = assay: NCI in vitro cancer screen, Ovarian Cancer; details: SK-OV-3, unit not printed (M)
# SK-MEL-28 = assay: NCI in vitro cancer screen, Melanoma; details: SK-MEL-28, unit not printed (M)
# TK-10 = assay: NCI in vitro cancer screen, Renal Cancer; details: TK-10, unit not printed (M)
# A498 = assay: NCI in vitro cancer screen, Renal Cancer; details: A498, unit not printed (M)
# PC-3 = assay: NCI in vitro cancer screen, Prostate Cancer; details: PC-3, unit not printed (M)
# SK-MEL-5 = assay: NCI in vitro cancer screen, Melanoma; details: SK-MEL-5, unit not printed (M)
# HCT-15 = assay: NCI in vitro cancer screen, Colon Cancer; details: HCT-15, unit not printed (M)
# SK-MEL-2 = assay: NCI in vitro cancer screen, Melanoma; details: SK-MEL-2, unit not printed (M)
# RPMI-8226 = assay: NCI in vitro cancer screen, Leukemia; details: RPMI, unit not printed (M)
# SN12C = assay: NCI in vitro cancer screen, Renal Cancer; details: unit not printed (M)
# UACC-62 = assay: NCI in vitro cancer screen, Melanoma; details: UACC-62, unit not printed (M)
# M14 = assay: NCI in vitro cancer screen, Melanoma; details: M14, unit not printed (M)
# HS 578T = assay: NCI in vitro cancer screen, Breast Cancer; details: unit not printed (M)
# [1] = Homo sapiens, read-out: LC50 (the source's name)
compound,measurement,setting,value
"COc1cc(/C=C/c2cc(O)cc(O)c2CC=C(C)C)ccc1O [USYDS10, (E)-2-(3-methyl-2-buten-1-yl)-3,4′,5-trihydroxy-3′-methoxystilbene]",GI50,SF-268; Homo sapiens,1400 nM
same,CC50,SF-268; [1],> 100 µM
same,TGI,SF-268,4.96E−5
same,GI50,NCI-H23; Homo sapiens,380 nM
same,LC50,NCI-H23; Homo sapiens,78.3 µM
same,TGI,NCI-H23,1.52E−5
same,TGI,786-0,2.01E−5
same,GI50,786-0; Homo sapiens,681 nM
same,LC50 (50% net cell kill),786-0; Homo sapiens,74.5 µM
same,GI50,EKVX; Homo sapiens,12.2 µM
same,CC50,EKVX; [1],> 100 µM
same,TGI,EKVX,7.34E−5
same,GI50,RXF-393,221 nM
same,CC50,RXF-393; read-out: LC50 (the source's name),37.6 µM
same,GI50,OVCAR-8; Homo sapiens,467 nM
same,CC50,OVCAR-8; [1],> 100 µM
same,TGI,OVCAR-8,6.50E−5
same,GI50,SR; Homo sapiens,188 nM
same,CC50,SR; [1],> 100 µM
same,TGI,SR,>1.00E−4
same,GI50,LOX IMVI; Homo sapiens,572 nM
same,CC50,LOX IMVI; [1],80 µM
same,TGI,LOX IMVI,1.93E−5
same,GI50,MDA-MB-435; Homo sapiens,38.5 nM
same,CC50,MDA-MB-435; [1],> 100 µM
same,TGI,MDA-MB-435,2.56E−7
same,TGI,HOP-62,1.77E−5
same,GI50,"HOP-62; Homo sapiens, HOP-62",581 nM
same,CC50,"HOP-62; Homo sapiens, HOP-62, read-out: LC50 (the source's name)",42.3 µM
same,GI50,"T-47D; Homo sapiens, T47D",1470 nM
same,CC50,"T-47D; Homo sapiens, T47D, read-out: LC50 (the source's name)",> 100 µM
same,TGI,T-47D,2.47E−5
same,GI50,NCI-H460; Homo sapiens,381 nM
same,CC50,NCI-H460; [1],66.1 µM
same,TGI,NCI-H460,1.29E−5
same,GI50,MDA-MB-468; Homo sapiens,373 nM
same,CC50,MDA-MB-468; [1],44.9 µM
same,TGI,MDA-MB-468,1.44E−5
same,TGI,HCC-2998,1.19E−5
same,GI50,HCC-2998; Homo sapiens,1810 nM
same,CC50,HCC-2998; [1],39.8 µM
same,GI50,SK-OV-3; Homo sapiens,422 nM
same,CC50,SK-OV-3; [1],34.2 µM
same,TGI,SK-OV-3,1.14E−5
same,GI50,SK-MEL-28; Homo sapiens,572 nM
same,LC50,SK-MEL-28; Homo sapiens,43 µM
same,TGI,SK-MEL-28,1.69E−5
same,GI50,TK-10; Homo sapiens,9.55 µM
same,LC50,TK-10; Homo sapiens,> 100 µM
same,TGI,TK-10,5.15E−5
same,TGI,A498,7.85E−6
same,GI50,A498; Homo sapiens,2170 nM
same,CC50,A498; [1],34.8 µM
same,GI50,PC-3; Homo sapiens,2270 nM
same,CC50,PC-3; [1],> 100 µM
same,TGI,PC-3,3.12E−5
same,GI50,SK-MEL-5; Homo sapiens,291 nM
same,CC50,SK-MEL-5; [1],36 µM
same,TGI,SK-MEL-5,1.27E−5
same,TGI,HCT-15,2.09E−5
same,GI50,HCT-15; Homo sapiens,498 nM
same,CC50,HCT-15; [1],> 100 µM
same,GI50,SK-MEL-2; Homo sapiens,576 nM
same,LC50,SK-MEL-2; Homo sapiens,> 100 µM
same,TGI,SK-MEL-2,3.26E−5
same,GI50,"RPMI-8226; Homo sapiens, RPMI-8226",324 nM
same,CC50,"RPMI-8226; Homo sapiens, RPMI-8226, read-out: LC50 (the source's name)",> 100 µM
same,TGI,RPMI-8226,1.63E−5
same,GI50,SN12C; Homo sapiens,671 nM
same,CC50,SN12C; [1],> 100 µM
same,TGI,SN12C,2.98E−5
same,GI50,UACC-62; Homo sapiens,521 nM
same,CC50,UACC-62; [1],42.8 µM
same,TGI,UACC-62,1.55E−5
same,GI50,M14; Homo sapiens,284 nM
same,CC50,M14; [1],41.6 µM
same,TGI,M14,1.42E−5
same,GI50,HS 578T; Homo sapiens,292 nM
same,CC50,HS 578T; [1],> 100 µM
same,TGI,HS 578T,2.60E−5
